Test results from the kinase profiling compilation of Christmann-Franck et al. (2016).

How the values were obtained:
Assay in all cases: KINOMEscan competition binding
Conditions in all cases: compound 10.0 µM
[1] = molecular target: ACVR2A (human) (UniProt P27037)
[2] = molecular target: ANKK1 (human) (UniProt Q8NFD2)
[3] = molecular target: ERBB4 (human) (UniProt Q15303)
[4] = molecular target: CDK5 (human) (UniProt Q00535)
[5] = molecular target: EPHB1 (human) (UniProt P54762)
[6] = molecular target: ERBB2 (human) (UniProt P04626)
Sequence of ERBB2 (human) (P04626 whole entry, looked up): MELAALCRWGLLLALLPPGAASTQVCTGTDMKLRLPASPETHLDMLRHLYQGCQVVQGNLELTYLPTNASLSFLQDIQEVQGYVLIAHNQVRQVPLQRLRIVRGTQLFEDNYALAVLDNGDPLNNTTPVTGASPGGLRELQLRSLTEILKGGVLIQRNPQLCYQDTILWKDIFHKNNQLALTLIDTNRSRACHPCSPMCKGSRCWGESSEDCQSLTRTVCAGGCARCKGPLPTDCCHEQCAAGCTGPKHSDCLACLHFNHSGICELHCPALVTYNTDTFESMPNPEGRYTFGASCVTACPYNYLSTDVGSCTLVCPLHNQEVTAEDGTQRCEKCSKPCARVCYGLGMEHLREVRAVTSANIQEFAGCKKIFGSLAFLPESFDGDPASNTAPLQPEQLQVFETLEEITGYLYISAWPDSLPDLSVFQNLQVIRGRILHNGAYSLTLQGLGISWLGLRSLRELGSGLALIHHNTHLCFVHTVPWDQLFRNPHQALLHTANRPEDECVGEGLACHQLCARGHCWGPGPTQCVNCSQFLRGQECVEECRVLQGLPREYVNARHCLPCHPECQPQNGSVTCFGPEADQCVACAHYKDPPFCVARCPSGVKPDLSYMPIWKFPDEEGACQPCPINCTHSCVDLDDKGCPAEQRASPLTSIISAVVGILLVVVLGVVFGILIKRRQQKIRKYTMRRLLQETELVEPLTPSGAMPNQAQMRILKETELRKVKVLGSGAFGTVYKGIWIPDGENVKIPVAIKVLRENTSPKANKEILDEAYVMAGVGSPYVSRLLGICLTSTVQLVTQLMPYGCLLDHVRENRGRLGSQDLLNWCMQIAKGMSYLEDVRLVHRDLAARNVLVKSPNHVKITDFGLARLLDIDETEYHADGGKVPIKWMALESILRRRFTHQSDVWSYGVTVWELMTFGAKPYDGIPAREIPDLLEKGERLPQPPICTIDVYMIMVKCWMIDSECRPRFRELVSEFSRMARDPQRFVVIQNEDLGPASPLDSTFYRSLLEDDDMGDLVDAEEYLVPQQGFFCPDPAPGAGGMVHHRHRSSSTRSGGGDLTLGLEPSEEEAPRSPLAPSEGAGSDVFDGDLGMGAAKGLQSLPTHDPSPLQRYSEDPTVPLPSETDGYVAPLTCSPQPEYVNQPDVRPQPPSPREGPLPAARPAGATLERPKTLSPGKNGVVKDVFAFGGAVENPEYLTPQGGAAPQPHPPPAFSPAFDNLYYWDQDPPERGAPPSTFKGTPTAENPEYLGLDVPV

[7] = molecular target: SRPK2 (human) (UniProt P78362)
[8] = molecular target: AKT2 (human) (UniProt P31751)
[9] = molecular target: AURKB (human) (UniProt Q96GD4)
Sequence of AURKB (human) (Q96GD4 whole entry, looked up): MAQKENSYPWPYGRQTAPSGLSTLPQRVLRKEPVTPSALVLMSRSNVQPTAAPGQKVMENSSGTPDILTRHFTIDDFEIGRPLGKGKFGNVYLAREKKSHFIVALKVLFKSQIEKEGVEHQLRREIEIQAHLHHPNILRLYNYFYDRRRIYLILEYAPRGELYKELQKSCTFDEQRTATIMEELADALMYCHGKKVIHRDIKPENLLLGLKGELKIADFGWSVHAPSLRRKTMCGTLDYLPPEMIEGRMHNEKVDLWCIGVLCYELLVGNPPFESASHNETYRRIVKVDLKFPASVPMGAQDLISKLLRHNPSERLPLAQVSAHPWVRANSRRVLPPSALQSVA

[10] = molecular target: LCK (human) (UniProt P06239)
Sequence of LCK (human) (P06239 whole entry, looked up): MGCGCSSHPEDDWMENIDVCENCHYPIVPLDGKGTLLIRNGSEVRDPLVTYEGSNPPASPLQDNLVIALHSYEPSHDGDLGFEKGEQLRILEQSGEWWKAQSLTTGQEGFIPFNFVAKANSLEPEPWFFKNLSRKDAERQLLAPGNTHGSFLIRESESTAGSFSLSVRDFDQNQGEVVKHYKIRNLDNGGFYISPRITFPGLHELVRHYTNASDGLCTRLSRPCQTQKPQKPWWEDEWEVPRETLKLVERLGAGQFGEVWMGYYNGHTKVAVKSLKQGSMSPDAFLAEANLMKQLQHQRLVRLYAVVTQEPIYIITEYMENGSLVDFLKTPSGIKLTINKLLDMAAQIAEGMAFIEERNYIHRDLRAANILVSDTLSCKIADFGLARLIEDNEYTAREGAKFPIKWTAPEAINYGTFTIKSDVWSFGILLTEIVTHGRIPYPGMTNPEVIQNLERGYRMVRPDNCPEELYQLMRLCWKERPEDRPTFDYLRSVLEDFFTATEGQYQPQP

[11] = molecular target: CDK17 (human) (UniProt Q00537)
[12] = molecular target: MAPK9 (human) (UniProt P45984)
Sequence of MAPK9 (human) (P45984 whole entry, looked up): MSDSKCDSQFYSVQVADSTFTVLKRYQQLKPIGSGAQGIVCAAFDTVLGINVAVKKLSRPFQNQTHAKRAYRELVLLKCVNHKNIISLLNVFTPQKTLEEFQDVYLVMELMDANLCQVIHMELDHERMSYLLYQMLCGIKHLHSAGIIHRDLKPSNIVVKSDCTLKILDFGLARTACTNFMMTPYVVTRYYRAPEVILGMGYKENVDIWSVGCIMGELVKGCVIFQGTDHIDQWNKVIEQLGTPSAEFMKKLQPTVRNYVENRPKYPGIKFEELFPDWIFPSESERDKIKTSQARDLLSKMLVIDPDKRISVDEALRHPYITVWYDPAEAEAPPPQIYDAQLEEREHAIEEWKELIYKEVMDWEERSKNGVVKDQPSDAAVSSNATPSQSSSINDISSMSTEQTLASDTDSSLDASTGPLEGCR

[13] = molecular target: RPS6KA6 KD1 (human) (UniProt Q9UK32)
Sequence of RPS6KA6 KD1 (human) (Q9UK32 whole entry, looked up): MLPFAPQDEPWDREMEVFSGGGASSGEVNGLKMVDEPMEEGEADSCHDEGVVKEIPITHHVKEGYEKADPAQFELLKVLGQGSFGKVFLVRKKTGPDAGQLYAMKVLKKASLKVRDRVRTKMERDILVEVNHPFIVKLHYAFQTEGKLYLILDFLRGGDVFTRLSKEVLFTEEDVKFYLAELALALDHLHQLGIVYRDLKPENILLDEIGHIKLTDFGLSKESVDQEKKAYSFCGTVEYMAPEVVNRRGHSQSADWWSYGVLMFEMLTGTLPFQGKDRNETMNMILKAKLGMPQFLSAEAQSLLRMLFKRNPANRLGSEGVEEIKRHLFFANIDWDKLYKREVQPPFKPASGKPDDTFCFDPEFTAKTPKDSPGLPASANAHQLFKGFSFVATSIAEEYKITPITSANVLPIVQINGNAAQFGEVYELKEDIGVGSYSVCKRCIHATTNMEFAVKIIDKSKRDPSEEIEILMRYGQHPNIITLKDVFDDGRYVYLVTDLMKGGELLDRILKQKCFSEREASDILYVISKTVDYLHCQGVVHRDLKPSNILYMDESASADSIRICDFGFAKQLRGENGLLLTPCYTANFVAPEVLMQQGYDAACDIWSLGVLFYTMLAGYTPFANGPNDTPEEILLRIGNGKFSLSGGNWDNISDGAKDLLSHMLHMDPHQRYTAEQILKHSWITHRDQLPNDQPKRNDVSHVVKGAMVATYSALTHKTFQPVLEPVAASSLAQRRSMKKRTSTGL

[14] = molecular target: MAP4K5 (human) (UniProt Q9Y4K4)
[15] = molecular target: MKNK2 (human) (UniProt Q9HBH9)
Sequence of MKNK2 (human) (Q9HBH9 whole entry, looked up): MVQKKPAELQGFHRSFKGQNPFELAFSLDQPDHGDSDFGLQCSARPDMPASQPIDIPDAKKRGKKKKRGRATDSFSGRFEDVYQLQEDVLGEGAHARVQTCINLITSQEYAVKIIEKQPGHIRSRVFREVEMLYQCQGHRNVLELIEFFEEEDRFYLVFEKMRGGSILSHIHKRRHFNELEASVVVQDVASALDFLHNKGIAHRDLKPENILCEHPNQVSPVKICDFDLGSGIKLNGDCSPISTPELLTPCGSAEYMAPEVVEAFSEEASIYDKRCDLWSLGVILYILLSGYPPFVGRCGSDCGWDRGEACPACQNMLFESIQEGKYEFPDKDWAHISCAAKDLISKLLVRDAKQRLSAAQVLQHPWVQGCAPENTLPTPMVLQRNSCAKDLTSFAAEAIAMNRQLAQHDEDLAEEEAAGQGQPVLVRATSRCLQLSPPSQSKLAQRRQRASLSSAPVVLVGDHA

[16] = molecular target: PAK1 (human) (UniProt Q13153)
[17] = molecular target: MUSK (human) (UniProt O15146)
[18] = molecular target: CAMK2A (human) (UniProt Q9UQM7)
[19] = molecular target: CDK15 (human) (UniProt Q96Q40)
[20] = molecular target: NTRK2 (human) (UniProt Q16620)
[21] = molecular target: CLK2 (human) (UniProt P49760)
[22] = molecular target: PDGFRB (human) (UniProt P09619)
[23] = test system: EIF2AK4 KD2 (human), Q9P2K8 [S808G]
[24] = molecular target: LATS2 (human) (UniProt Q9NRM7)
[25] = molecular target: DMPK (human) (UniProt Q09013)
[26] = molecular target: STK17A (human) (UniProt Q9UEE5)
[27] = molecular target: NEK1 (human) (UniProt Q96PY6)
[28] = molecular target: PRKACB (human) (UniProt P22694)
[29] = molecular target: NTRK1 (human) (UniProt P04629)
[30] = molecular target: MAP2K4 (human) (UniProt P45985)
[31] = molecular target: MAP3K9 (human) (UniProt P80192)
[32] = molecular target: HCK (human) (UniProt P08631)
Sequence of HCK (human) (P08631 whole entry, looked up): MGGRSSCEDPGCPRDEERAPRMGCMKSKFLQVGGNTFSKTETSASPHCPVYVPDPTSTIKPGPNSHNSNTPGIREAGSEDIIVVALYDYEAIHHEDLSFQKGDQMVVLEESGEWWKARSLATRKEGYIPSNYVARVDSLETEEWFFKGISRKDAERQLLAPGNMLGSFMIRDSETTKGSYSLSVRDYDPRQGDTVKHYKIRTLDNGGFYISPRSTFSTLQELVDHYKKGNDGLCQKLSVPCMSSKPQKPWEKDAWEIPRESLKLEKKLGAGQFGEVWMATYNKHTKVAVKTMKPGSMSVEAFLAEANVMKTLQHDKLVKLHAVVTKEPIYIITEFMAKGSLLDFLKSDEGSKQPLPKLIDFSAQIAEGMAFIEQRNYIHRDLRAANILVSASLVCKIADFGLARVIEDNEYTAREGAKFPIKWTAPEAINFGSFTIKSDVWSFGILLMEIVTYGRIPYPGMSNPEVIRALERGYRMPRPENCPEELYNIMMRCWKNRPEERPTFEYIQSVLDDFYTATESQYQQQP

[33] = molecular target: CSNK2A1 (human) (UniProt P68400)
[34] = molecular target: MYLK (human) (UniProt Q15746)
[35] = molecular target: MAPK15 (human) (UniProt Q8TD08)
[36] = molecular target: PRKACA (human) (UniProt P17612)
[37] = molecular target: STK33 (human) (UniProt Q9BYT3)
[38] = molecular target: SRPK1 (human) (UniProt Q96SB4)
Sequence of SRPK1 (human) (Q96SB4 whole entry, looked up): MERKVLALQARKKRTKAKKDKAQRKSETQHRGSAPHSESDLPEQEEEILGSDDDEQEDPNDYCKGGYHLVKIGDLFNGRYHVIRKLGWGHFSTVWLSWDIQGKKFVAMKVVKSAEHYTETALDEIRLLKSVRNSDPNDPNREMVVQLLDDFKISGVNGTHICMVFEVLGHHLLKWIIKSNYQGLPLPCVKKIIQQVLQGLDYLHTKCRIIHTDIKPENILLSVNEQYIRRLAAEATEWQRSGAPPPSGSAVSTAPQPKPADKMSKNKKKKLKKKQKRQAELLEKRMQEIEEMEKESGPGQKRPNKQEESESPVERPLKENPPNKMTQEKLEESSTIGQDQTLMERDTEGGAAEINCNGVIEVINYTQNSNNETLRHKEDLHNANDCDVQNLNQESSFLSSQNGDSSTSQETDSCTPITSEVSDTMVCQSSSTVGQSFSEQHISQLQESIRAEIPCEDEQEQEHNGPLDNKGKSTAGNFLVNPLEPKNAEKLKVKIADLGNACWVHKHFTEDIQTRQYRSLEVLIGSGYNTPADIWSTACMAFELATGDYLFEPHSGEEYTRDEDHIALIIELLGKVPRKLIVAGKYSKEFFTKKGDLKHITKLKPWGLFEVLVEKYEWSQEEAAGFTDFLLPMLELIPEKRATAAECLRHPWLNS

[39] = molecular target: MAP3K11 (human) (UniProt Q16584)
[40] = molecular target: MINK1 (human) (UniProt Q8N4C8)

Row | Structure (SMILES) | kinase still bound, per cent of control [1] [%] | kinase still bound, per cent of control [2] [%] | kinase still bound, per cent of control [3] [%] | kinase still bound, per cent of control [4] [%] | kinase still bound, per cent of control [5] [%] | kinase still bound, per cent of control [6] [%] | kinase still bound, per cent of control [7] [%] | kinase still bound, per cent of control [8] [%] | kinase still bound, per cent of control [9] [%] | kinase still bound, per cent of control [10] [%] | kinase still bound, per cent of control [11] [%] | kinase still bound, per cent of control [12] [%] | kinase still bound, per cent of control [13] [%] | kinase still bound, per cent of control [14] [%] | kinase still bound, per cent of control [15] [%] | kinase still bound, per cent of control [16] [%] | kinase still bound, per cent of control [17] [%] | kinase still bound, per cent of control [18] [%] | kinase still bound, per cent of control [19] [%] | kinase still bound, per cent of control [20] [%] | other results
1 | CCOc1cc2ncc(C#N)c(Nc3ccc(OCc4ccccn4)c(Cl)c3)c2cc1NC(=O)/C=C/CN(C)C | 100 | 100 | 0 | 100 | 98 | 0 | 85 | 99 | 75 | 3.7 | 100 | 52 | 86 | 0.85 | 99 | 16 | 100 | 90 | 98 | 95 | kinase still bound, per cent of control [21]: 100%; kinase still bound, per cent of control [22]: 69%; kinase still bound, per cent of control [23]: 1.4%; kinase still bound, per cent of control [24]: 100%; kinase still bound, per cent of control [25]: 98%; kinase still bound, per cent of control [26]: 37%; kinase still bound, per cent of control [27]: 70%; kinase still bound, per cent of control [28]: 100%; kinase still bound, per cent of control [29]: 77%; kinase still bound, per cent of control [30]: 72%; kinase still bound, per cent of control [31]: 84%; kinase still bound, per cent of control [32]: 35%; kinase still bound, per cent of control [33]: 94%; kinase still bound, per cent of control [34]: 73%; kinase still bound, per cent of control [35]: 100%; kinase still bound, per cent of control [36]: 95%; kinase still bound, per cent of control [37]: 42%; kinase still bound, per cent of control [38]: 100%; kinase still bound, per cent of control [39]: 85%; kinase still bound, per cent of control [40]: 6.8%
2 | O=C(NOC[C@H](O)CO)c1ccc(F)c(F)c1Nc1ccc(I)cc1F | 80 | 64 | 100 | 100 | 100 | 100 | 100 | 100 | 99 | 88 | 95 | 88 | 75 | 69 | 100 | 100 | 68 | 100 | 78 | 100 | kinase still bound, per cent of control [21]: 96%; kinase still bound, per cent of control [22]: 66%; kinase still bound, per cent of control [23]: 84%; kinase still bound, per cent of control [24]: 74%; kinase still bound, per cent of control [25]: 90%; kinase still bound, per cent of control [26]: 100%; kinase still bound, per cent of control [27]: 98%; kinase still bound, per cent of control [28]: 98%; kinase still bound, per cent of control [29]: 100%; kinase still bound, per cent of control [30]: 83%; kinase still bound, per cent of control [31]: 95%; kinase still bound, per cent of control [32]: 100%; kinase still bound, per cent of control [33]: 77%; kinase still bound, per cent of control [34]: 96%; kinase still bound, per cent of control [35]: 100%; kinase still bound, per cent of control [36]: 72%; kinase still bound, per cent of control [37]: 79%; kinase still bound, per cent of control [38]: 100%; kinase still bound, per cent of control [39]: 100%; kinase still bound, per cent of control [40]: 94%
3 | Cc1ccc2nc(NCCN)c3ncc(C)n3c2c1 | 92 | 99 | 100 | 100 | 100 | 100 | 89 | 100 | 67 | 98 | 92 | 44 | 88 | 96 | 90 | 100 | 100 | 78 | 100 | 89 | kinase still bound, per cent of control [21]: 54%; kinase still bound, per cent of control [22]: 57%; kinase still bound, per cent of control [23]: 98%; kinase still bound, per cent of control [24]: 100%; kinase still bound, per cent of control [25]: 100%; kinase still bound, per cent of control [26]: 68%; kinase still bound, per cent of control [27]: 78%; kinase still bound, per cent of control [28]: 100%; kinase still bound, per cent of control [29]: 100%; kinase still bound, per cent of control [30]: 100%; kinase still bound, per cent of control [31]: 100%; kinase still bound, per cent of control [32]: 100%; kinase still bound, per cent of control [33]: 33%; kinase still bound, per cent of control [34]: 79%; kinase still bound, per cent of control [35]: 19%; kinase still bound, per cent of control [36]: 100%; kinase still bound, per cent of control [37]: 73%; kinase still bound, per cent of control [38]: 100%; kinase still bound, per cent of control [39]: 87%; kinase still bound, per cent of control [40]: 100%
